Patent publication US4175081A, “5-Substituted thiadiazole ureas” (priority 1977, dated 1979)

Legend:
[1] = system: Crabgrass (CG); assay: Post-emergence herbicide test; format: in vivo, Digitaria sanquinalis; conditions: Digitaria sanguinalis, post-emergence, 336 h, two weeks after treatment; for pest or weed control at 8966.8 g/ha: 8 lb/acre
Outline: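 Crabgrass (Digitaria sanquinalis) was surface seeded individually in 3' plastic pots of potting soil, covered with screened soil, and watered by sub-irrigation in greenhouse trays. Planting was staggered so seedlings reached the target stage together. Post-emergence sprays were applied in a hood with a removable belt and fixed nozzle, and control was visually rated two weeks after treatment.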

[2] = system: Bean (BN); assay: Pre-emergence herbicide test; format: in vivo, Phaseolus vulgaris var. Black Valentine; conditions: Phaseolus vulgaris, 336 h, 8 lb/acre, two weeks after treatment
Outline: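 Visual injury/control ratings were taken two weeks post-spray on sub-irrigated Phaseolus vulgaris var. Black Valentine. Pots were sown a day before treatment. Pre-emergence spray delivered 8 lbs actual compound per acre (or 4 lbs/acre) at 38 gallons per acre.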

[3] = system: Turnip (TP); assay: Post-emergence herbicide test; format: in vivo, Brassica sp.; conditions: Brassica rapa, post-emergence, 336 h, two weeks after treatment; for pest or weed control at 8966.8 g/ha: 8 lb/acre
Outline: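 A greenhouse post-emergence herbicide test on turnip. Seeds were sown on the surface of potting soil in 3' plastic pots, lightly covered with screened soil and watered from below. Planting was timed so seedlings had 1 or 2 true leaves above the cotyledons at spraying, done in a hood with a fixed nozzle. Control or injury was scored by eye after two weeks.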

[4] = system: Amaranth pigweed (PW); assay: Pre-emergence herbicide test; format: in vivo, Amaranthus retroflexus; conditions: 336 h, 8 lb/acre, two weeks after treatment
Outline: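 Visual injury or control ratings were made at two weeks on pre-emergence pots, sub-irrigated in the greenhouse. Seeds were sown a day before a hood spray delivering 8 lbs/acre (or 4 lbs/acre) of compound in 38 gallons per acre.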

[5] = system: Yellow foxtail grass (YF); assay: Pre-emergence herbicide test; format: in vivo, Setaria glauca; conditions: Setaria, 336 h, 8 lb/acre, two weeks after treatment
Outline: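 Visual rating of injury/control made two weeks after a pre-emergence spray of 8 or 4 lbs active per acre (38 gal/acre) onto pots seeded the previous day. Greenhouse watering by sub-irrigation only.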

[6] = system: Amaranth pigweed (PW); assay: Post-emergence herbicide test; format: in vivo, Amaranthus retroflexus; conditions: 336 h, two weeks after treatment; for pest or weed control at 8966.8 g/ha: 8 lb/acre
Outline: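 Visual injury or control ratings were made two weeks after spraying, with greenhouse watering by sub-irrigation only. Treatment was post-emergence, when pigweed seedlings had 1 or 2 true leaves, at 8 lbs active compound per acre (4 lbs/acre formulations also made) in a 38 gallons-per-acre spray volume.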

[7] = system: Johnson grass (JG); assay: Post-emergence herbicide test; format: in vivo, Sorgum helepense; conditions: Sorghum halepense, 336 h, two weeks after treatment; for pest or weed control at 8966.8 g/ha: 8 lb/acre
Outline: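 Visual injury or control scores taken 2 weeks after a post-emergence spray of pot-grown plants. Application was 8 lbs/acre (or 4 lbs/acre) in 38 gal/acre. Plants were held in the greenhouse with sub-irrigation only.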

[8] = system: Turnip (TP); assay: Pre-emergence herbicide test; format: in vivo, Brassica sp.; conditions: Brassica rapa, pre-emergence, 336 h; 8 lb/acre; two weeks after treatment
Outline: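 In this pre-emergence greenhouse test, turnip was seeded on the surface of potting soil in 3' plastic pots, lightly covered with screened soil, and watered from below. One day later the pots were sprayed in a belt-fed spray hood. Watering continued only by sub-irrigation, and percent control was visually scored two weeks after treatment.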

[9] = system: Bean (BN); assay: Post-emergence herbicide test; format: in vivo, Phaseolus vulgaris var. Black Valentine; conditions: Phaseolus vulgaris, post-emergence, 336 h, two weeks after treatment; for pest or weed control at 8966.8 g/ha: 8 lb/acre
Outline: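 Bean seedlings (Phaseolus vulgaris var. Black Valentine) were grown in potting soil in 3' pots until the primary leaves expanded. They were then sprayed under a hood with a removable belt and fixed nozzle, using 50 ml formulations. Afterward they were returned to the greenhouse and watered only by sub-irrigation. Percent control was judged visually two weeks after treatment.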

[10] = system: Cotton (CT); assay: Post-emergence herbicide test; format: in vivo, Gossypium hirsutum var. DPL smooth leaf; conditions: Gossypium hirsutum, post-emergence, 336 h, two weeks after treatment; for pest or weed control at 8966.8 g/ha: 8 lb/acre
Outline: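 This greenhouse post-emergence test measured how well spray treatments controlled cotton. Seedlings of Gossypium hirsutum var. DPL smooth leaf, with expanded cotyledons and a first true leaf 1' in length, were sprayed with 50 ml formulations in a belt-fed spray hood. They were then returned to the greenhouse and watered only by sub-irrigation. Injury was scored visually as % control after two weeks.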

[11] = system: Crabgrass (CG); assay: Pre-emergence herbicide test; format: in vivo, Digitaria sanquinalis; conditions: Digitaria sanguinalis, pre-emergence, 336 h; 8 lb/acre; two weeks after treatment
Outline: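 Crabgrass (Digitaria sanquinalis) was surface seeded in 3' plastic pots of potting soil, covered with screened soil, and watered by sub-irrigation in greenhouse trays. Pots were seeded one day before spraying in a hood with a moving belt and fixed nozzle. Plants stayed in the greenhouse on sub-irrigation, and pre-emergence control was rated visually two weeks after treatment.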

[12] = system: Barnyard grass (BG); assay: Post-emergence herbicide test; format: in vivo; conditions: Echinochloa crus-galli, 336 h, two weeks after treatment; for pest or weed control at 8966.8 g/ha: 8 lb/acre
Outline: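 Greenhouse pot-grown barnyard grass seedlings sprayed post-emergence at 8 lbs active compound per acre (some at 4 lbs/acre) in 38 gallons per acre, then sub-irrigated. Injury or control rated visually two weeks after treatment.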

[13] = system: Corn (CN); assay: Post-emergence herbicide test; format: in vivo; conditions: Zea mays, 336 h, two weeks after treatment; for pest or weed control at 8966.8 g/ha: 8 lb/acre
Outline: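 Greenhouse seedlings grown in potting soil and sprayed post-emergence at 8 lbs compound/acre (formulations also made for 4 lbs/acre) in 38 gallons/acre spray volume. Watering by sub-irrigation only. Injury or control rated visually two weeks after treatment.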

[14] = system: variety of crops and weed species; assay: Pre- and post-emergence herbicide tests, overall assessment of Tables III-VI; format: in vivo; conditions: data of Tables III-VI
Method: All crop and weed species were planted individually in 3' plastic pots containing potting soil. Four seeds each of corn, cotton, and snapbeans were seeded to a depth equal to the diameter of the seed. All other species were surface seeded and sprinkled with screened soil in an amount sufficient to cover the seed. Immediately after planting, all pots were watered by sub-irrigation in greenhouse trays. Pots for the pre-emergence phase were seeded one day before treatment.
Compounds were tested at rates of application equivalent to 8 lbs. of actual compound per acre in a spray volume of 38 gallons per acre. Spray hood constants required to deliver the above volume are as follows:
Two weeks after treatment, pre- and post-emergence injury or control was visually rated, and the results were as shown in the following tables. Pre-emergence data are provided in TABLE III and post-emergence data are provided in TABLE IV, for compounds having the formula illustrated in TABLE I. Correspondingly, pre-emergence and post-emergence data, respectively, are set forth in TABLES V AND VI, for compounds having the formula illustrated in TABLE II.

[15] = system: Cotton (CT); assay: Pre-emergence herbicide test; format: in vivo, Gossypium hirsutum var. DPL smooth leaf; conditions: Gossypium hirsutum, 336 h, 8 lb/acre, two weeks after treatment
Outline: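 Visual injury/control ratings were taken at two weeks post-spray. Pots seeded a day earlier received compound pre-emergence at 8 lbs/acre, or 4 lbs/acre, in a 38 gallon/acre spray volume, and were then held in the greenhouse, watered only from below.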

[16] = system: Barnyard grass (BG); assay: Pre-emergence herbicide test; format: in vivo; conditions: Echinochloa crus-galli, 336 h, 8 lb/acre, two weeks after treatment
Outline: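 Greenhouse pre-emergence spray test: pots seeded one day before treatment received compound at rates of 8 or 4 lb/acre (38 gal/acre). Visual injury/control scores for Echinochloa crus-galli taken at two weeks, with watering by sub-irrigation only.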

[17] = system: Corn (CN); assay: Pre-emergence herbicide test; format: in vivo; conditions: Zea mays, 336 h, 8 lb/acre, two weeks after treatment
Outline: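 Visual injury/control ratings were made 2 weeks post-spray on corn pots seeded (4 seeds, seed-diameter depth) the day before treatment. Application was a belt-hood spray of 38 gal/acre delivering 8 lbs active per acre, with a 4 lbs/acre rate also formulated. Watering was by sub-irrigation throughout.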

[18] = system: Yellow foxtail grass (YF); assay: Post-emergence herbicide test; format: in vivo, Setaria glauca; conditions: Setaria, 336 h, two weeks after treatment; for pest or weed control at 8966.8 g/ha: 8 lb/acre
Outline: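 Visual rating of injury/control made 2 weeks post-spray. Seedlings at a uniform growth stage in soil-filled pots received a hood spray of 8 lbs/acre active compound, 38 gallons/acre volume, with a 4 lbs/acre rate also formulated. Watering was by sub-irrigation only.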

[19] = system: Johnson grass (JG); assay: Pre-emergence herbicide test; format: in vivo, Sorgum helepense; conditions: Sorghum halepense, 336 h, 8 lb/acre, two weeks after treatment
Outline: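 Visual injury or control rating two weeks post-treatment, after pre-emergence spray of 8 or 4 lbs active per acre (38 gal/acre) onto pots sown the previous day. Greenhouse watering by sub-irrigation only.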

SMILES	pest or weed control at 8966.8 g/ha [1] [%]	pest or weed control at 8966.8 g/ha [2] [%]	pest or weed control at 8966.8 g/ha [3] [%]	pest or weed control at 8966.8 g/ha [5] [%]	pest or weed control at 8966.8 g/ha [6] [%]	pest or weed control at 8966.8 g/ha [7] [%]	pest or weed control at 8966.8 g/ha [8] [%]	pest or weed control at 8966.8 g/ha [9] [%]	pest or weed control at 8966.8 g/ha [10] [%]	pest or weed control at 8966.8 g/ha [11] [%]	pest or weed control at 8966.8 g/ha [12] [%]	pest or weed control at 8966.8 g/ha [13] [%]	herbicidal effectiveness / selectivity, in words [14]	pest or weed control at 8966.8 g/ha [15] [%]	pest or weed control at 8966.8 g/ha [16] [%]	pest or weed control at 8966.8 g/ha [17] [%]	pest or weed control at 8966.8 g/ha [18] [%]	pest or weed control at 8966.8 g/ha [19] [%]	further results
CN(C)C(=O)Nc1nnc(C(F)(F)F)s1 [Example 2, 1,1-Dimethyl-3-[5-Trifluoromethyl-2-(1,3,4-Thiadiazolyl)] Urea]	60	80	80	90	90	40	100	60	90	90	60	100	extremely effective when applied to a variety of crops and weed species	70	90	50	60	90	pest or weed control ([1]; 2 lb/acre): 100%; pest or weed control at 4483.4 g/ha ([1]; 4 lb/acre): 80%; pest or weed control at 2241.7 g/ha ([3]; 2 lb/acre): 100%; pest or weed control at 4483.4 g/ha ([3]; 4 lb/acre): 90%; pest or weed control at 8966.8 g/ha [4]: 90%; pest or weed control at 2241.7 g/ha ([6]; 2 lb/acre): 100%; pest or weed control at 4483.4 g/ha ([6]; 4 lb/acre): 100%; pest or weed control ([7]; 2 lb/acre): 90%; pest or weed control at 4483.4 g/ha ([7]; 4 lb/acre): 30%; pest or weed control at 2241.7 g/ha ([9]; 2 lb/acre): 80%; pest or weed control at 4483.4 g/ha ([9]; 4 lb/acre): 70%; pest or weed control at 2241.7 g/ha ([10]; 2 lb/acre): 100%; pest or weed control at 4483.4 g/ha ([10]; 4 lb/acre): 90%; pest or weed control at 2241.7 g/ha ([12]; 2 lb/acre): 90%; pest or weed control at 4483.4 g/ha ([12]; 4 lb/acre): 90%; pest or weed control ([13]; 2 lb/acre): 100%; pest or weed control at 4483.4 g/ha ([13]; 4 lb/acre): 100%; pest or weed control ([18]; 2 lb/acre): 90%; pest or weed control at 4483.4 g/ha ([18]; 4 lb/acre): 90%
O=C(Nc1ccc(Cl)cc1)Nc1nnc(C(F)(F)F)s1 [Example 15]	30	30	50	10	100	20	10	40	60	10	20	20	more selective when applied to a certain crop or weed species	80	10	10	20	10	–
CCNC(=O)Nc1nnc(C(F)(F)F)s1 [Example 9]	60	100	60	20	100	80	10	70	50	10	40	30	more selective when applied to a certain crop or weed species	30	20	50	30	10	–
